Patent US8802597B2, “Herbicidal pyrimidines” (E I du Pont de Nemours and Company, priority 2003, dated 2014)
Where two headings read alike, the source gives them in different places.

Legend:
Format in all cases: in vivo
[1] = test system: yellow nutsedge (Cyperus esculentus); test: Test C pre/postemergence; details: Cyperus, post-emergence, Postemergence
Method in brief: (§1)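 Rating scale 0–100: 0 means no effect, 100 complete control; taken visually 12 to 14 days post-treatment versus controls. Pre- and postemergence greenhouse applications, postemergence at 1- to 4-leaf stage, non-phytotoxic solvent with surfactant as carrier.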

[2] = test system: crabgrass (Digitaria sanguinalis); test: Test C pre/postemergence; details: Digitaria sanguinalis, post-emergence, Postemergence
Method in brief: as §1

[3] = test system: giant foxtail (Setaria faberii); test: Test C pre/postemergence; details: Setaria faberi, post-emergence, Postemergence
Method in brief: as §1

[4] = test system: Surinam grass (Brachiaria decumbens); test: Test C pre/postemergence; details: Urochloa decumbens, post-emergence, Postemergence
Method in brief: as §1

[5] = test system: chickweed (Stellaria media); test: Test C postemergence; details: Stellaria media, post-emergence
Method in brief: as §1

[6] = test system: velvetleaf (Abutilon theophrasti); test: Test A pre/postemergence; details: Abutilon theophrasti, 240 h, read-out: Plant response rating, Velvetleaf; for pest or weed control at 125 g/ha: 125 g ai/ha; for pest or weed control at 500 g/ha: 500 g ai/ha
Method in brief: (§2)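 Soil: loam blended with sand. Formulation: non-phytotoxic solvent mixture with surfactant. Timing: preemergence soil spray plus concurrent postemergence spray (plants 2–10 cm, 1–2 leaves). Readout: visual injury versus untreated controls at ~10 days, 0–100.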

[7] = test system: crabgrass (Digitaria sanguinalis); test: Test A pre/postemergence; details: Digitaria sanguinalis, 240 h, read-out: Plant response rating, Crabgrass; for pest or weed control at 125 g/ha: 125 g ai/ha; for pest or weed control at 500 g/ha: 500 g ai/ha
Method in brief: as §2

[8] = test system: giant foxtail (Setaria faberi); test: Test A pre/postemergence; details: Setaria faberi, 240 h, read-out: Plant response rating, Foxtail, Giant; for pest or weed control at 125 g/ha: 125 g ai/ha; for pest or weed control at 500 g/ha: 500 g ai/ha
Method in brief: as §2

[9] = test system: barnyardgrass (Echinochloa crus-galli); test: Test A pre/postemergence; details: Echinochloa crus-galli, 240 h, read-out: Plant response rating, Barnyardgrass; for pest or weed control at 125 g/ha: 125 g ai/ha; for pest or weed control at 500 g/ha: 500 g ai/ha
Method in brief: as §2

[10] = test system: redroot pigweed (Amaranthus retroflexus); test: Test A pre/postemergence; details: Amaranthus retroflexus, 240 h, read-out: Plant response rating, Pigweed; for pest or weed control at 125 g/ha: 125 g ai/ha; for pest or weed control at 500 g/ha: 500 g ai/ha
Method in brief: as §2

[11] = test system: morningglory (Ipomoea spp.); test: Test A pre/postemergence; details: Ipomoea, 240 h, read-out: Plant response rating, Morningglory; for pest or weed control at 125 g/ha: 125 g ai/ha; for pest or weed control at 500 g/ha: 500 g ai/ha
Method in brief: as §2

[12] = post-emergence, Postemergence, 0 to 100 scale (0 no effect, 100 complete control)
[13] = pre-emergence, Preemergence, 0 to 100 scale where 0 is no effect and 100 is complete control, approximately ten days

CCOC(=O)c1nc(-c2ccc(Br)cc2)nc(N)c1Cl [Compound 94, ethyl 6-amino-2-(4-bromophenyl)-5-chloro-4-pyrimidinecarboxylate]
pest or weed control at 16 g/ha ([1]; 16 g ai/ha, read-out: Plant response rating (scale of 0 to 100), Nutsedge, Yellow): 55% | pest or weed control at 31 g/ha ([1]; 31 g ai/ha, read-out: Plant response rating (scale of 0 to 100), Nutsedge, Yellow): 60% | pest or weed control at 62 g/ha ([1]; 62 g ai/ha, read-out: Plant response rating (scale of 0 to 100), Nutsedge, Yellow): 70% | pest or weed control at 125 g/ha ([1]; 125 g ai/ha, scale 0 to 100 (0 no effect, 100 complete control), read-out: Nutsedge, Yellow plant response rating): 75% | pest or weed control at 16 g/ha ([2]; 16 g ai/ha, read-out: Plant response rating (scale of 0 to 100), Crabgrass): 70% | pest or weed control at 31 g/ha ([2]; 31 g ai/ha, read-out: Plant response rating (scale of 0 to 100), Crabgrass): 80% | pest or weed control at 62 g/ha ([2]; 62 g ai/ha, read-out: Plant response rating (scale of 0 to 100), Crabgrass): 85% | pest or weed control at 125 g/ha ([2]; 125 g ai/ha, scale 0 to 100 (0 no effect, 100 complete control), read-out: Crabgrass plant response rating): 85% | pest or weed control at 125 g/ha ([3]; 125 g ai/ha, scale 0 to 100 (0 no effect, 100 complete control), read-out: Foxtail, Giant plant response rating): 80% | pest or weed control at 16 g/ha ([3]; 16 g ai/ha, read-out: Plant response rating (scale of 0 to 100), Foxtail, Giant): 30% | pest or weed control at 31 g/ha ([3]; 31 g ai/ha, read-out: Plant response rating (scale of 0 to 100), Foxtail, Giant): 65% | pest or weed control at 62 g/ha ([3]; 62 g ai/ha, read-out: Plant response rating (scale of 0 to 100), Foxtail, Giant): 80% | pest or weed control at 125 g/ha ([4]; 125 g ai/ha, scale 0 to 100 (0 no effect, 100 complete control), read-out: Surinam Grass plant response rating): 100% | pest or weed control at 16 g/ha ([4]; 16 g ai/ha, read-out: Plant response rating (scale of 0 to 100), Surinam Grass): 50% | pest or weed control at 31 g/ha ([4]; 31 g ai/ha, read-out: Plant response rating (scale of 0 to 100), Surinam Grass): 60% | pest or weed control at 62 g/ha ([4]; 62 g ai/ha, read-out: Plant response rating (scale of 0 to 100), Surinam Grass): 90% | pest or weed control at 31 g/ha ([5]; 31 g ai/ha, read-out: Plant response rating (scale of 0 to 100), Chickweed): 45% | pest or weed control at 62 g/ha ([5]; 62 g ai/ha, read-out: Plant response rating (scale of 0 to 100), Chickweed): 50% | pest or weed control at 125 g/ha ([5]; 125 g ai/ha, scale 0 to 100 (0 no effect, 100 complete control), read-out: Chickweed plant response rating): 95% | pest or weed control at 125 g/ha [6, 12]: 90% | pest or weed control at 500 g/ha [6, 12]: 90% | pest or weed control at 125 g/ha [6, 13]: 75% | pest or weed control at 500 g/ha [6, 13]: 90% | pest or weed control at 125 g/ha [7, 12]: 35% | pest or weed control at 500 g/ha [7, 12]: 50% | pest or weed control at 125 g/ha [7, 13]: 45% | pest or weed control at 500 g/ha [7, 13]: 55% | pest or weed control at 125 g/ha [8, 12]: 45% | pest or weed control at 500 g/ha [8, 12]: 65% | pest or weed control at 125 g/ha [8, 13]: 20% | pest or weed control at 500 g/ha [8, 13]: 40% | pest or weed control at 125 g/ha [9, 12]: 30% | pest or weed control at 500 g/ha [9, 12]: 60% | pest or weed control at 125 g/ha [9, 13]: 5% | pest or weed control at 500 g/ha [9, 13]: 40% | pest or weed control at 125 g/ha [10, 12]: 80% | pest or weed control at 500 g/ha [10, 12]: 85% | pest or weed control at 125 g/ha [10, 13]: 90% | pest or weed control at 500 g/ha [10, 13]: 95% | pest or weed control at 125 g/ha [11, 12]: 70% | pest or weed control at 500 g/ha [11, 12]: 75% | pest or weed control at 125 g/ha [11, 13]: 30% | pest or weed control at 500 g/ha [11, 13]: 35%
